Assay results: ChEMBL document CHEMBL1132172, “Synthesis of a series of stromelysin-selective thiadiazole urea matrix metalloproteinase inhibitors” (J Med Chem, 1999)

Molecular target: Stromelysin-1 (Homo sapiens, UniProt P08254)
Sequence (P08254 whole entry): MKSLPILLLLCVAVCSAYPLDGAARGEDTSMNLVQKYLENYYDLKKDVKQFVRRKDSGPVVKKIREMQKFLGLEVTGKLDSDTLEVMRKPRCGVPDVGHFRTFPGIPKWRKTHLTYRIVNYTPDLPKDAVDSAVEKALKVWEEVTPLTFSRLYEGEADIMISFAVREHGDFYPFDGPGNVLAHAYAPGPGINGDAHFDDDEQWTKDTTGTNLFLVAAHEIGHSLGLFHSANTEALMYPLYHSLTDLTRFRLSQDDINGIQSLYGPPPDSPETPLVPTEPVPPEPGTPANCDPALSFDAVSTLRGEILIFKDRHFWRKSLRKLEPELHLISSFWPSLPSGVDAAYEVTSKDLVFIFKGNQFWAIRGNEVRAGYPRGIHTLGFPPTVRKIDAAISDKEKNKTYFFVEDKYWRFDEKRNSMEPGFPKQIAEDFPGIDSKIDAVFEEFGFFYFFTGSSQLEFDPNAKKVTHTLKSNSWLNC
Description: Inhibitory concentration against Matrix metalloprotease-3

Structure (SMILES)	IC50 [µM]
Sc1nnc(NCc2ccccc2)s1	97
O=C(NCc1ccccc1)Nc1nncs1	> 2000
O=C(NCc1cccc2ccccc12)Nc1nnc(S)s1	23
Sc1nnc(Nc2ccccc2)s1	190
O=C(Nc1ccc(F)cc1)Nc1nnc(S)s1	29
Sc1nnc(NCCCCc2ccccc2)s1	318
Sc1nnc(NCCc2ccccc2)s1	47
CCN(C(=O)NCCc1ccccc1)c1nnc(S)s1	> 1000
Cn1nc(NC(=O)NCCc2ccccc2)sc1=S	694
Sc1nnc(NCc2ccco2)s1	289
CCNc1nnc(S)s1	> 2000
O=C(NCCCCc1ccccc1)Nc1nnc(S)s1	34
Cc1cccc(Cl)c1Nc1nnc(S)s1	173
O=C(Nc1ccccc1)Nc1nnc(S)s1	99
CCCCCCCCCCCCNc1nnc(S)s1	97

Molecular target: T1, Interstitial collagenase (Homo sapiens, UniProt P03956)
T1 sequence (P03956 whole entry): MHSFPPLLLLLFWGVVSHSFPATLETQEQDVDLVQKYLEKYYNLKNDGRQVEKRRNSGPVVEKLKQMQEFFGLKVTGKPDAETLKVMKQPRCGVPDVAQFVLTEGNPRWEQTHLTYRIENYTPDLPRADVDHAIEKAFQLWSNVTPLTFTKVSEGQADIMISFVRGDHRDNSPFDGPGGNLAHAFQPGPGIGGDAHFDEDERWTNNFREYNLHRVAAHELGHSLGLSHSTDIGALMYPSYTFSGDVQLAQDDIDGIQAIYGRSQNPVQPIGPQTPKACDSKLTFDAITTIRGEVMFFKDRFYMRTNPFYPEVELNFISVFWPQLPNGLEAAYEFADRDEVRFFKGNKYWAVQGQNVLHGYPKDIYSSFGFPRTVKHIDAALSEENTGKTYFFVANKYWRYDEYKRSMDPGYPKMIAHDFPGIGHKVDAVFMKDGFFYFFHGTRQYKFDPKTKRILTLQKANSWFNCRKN
Description: Binding affinity for matrix metalloprotease-1

Structure (SMILES)	Ki [µM]
CNC(=O)[C@H](Cc1ccccc1)NC(=O)Nc1nnc(S)s1	31
CNC(=O)[C@H](CC(C)C)NC(=O)Nc1nnc(S)s1	> 200
CNC(=O)[C@H](CO)NC(=O)Nc1n[nH]c(=S)s1	> 200
COc1ccc(N2CCN(C(=O)[C@H](Cc3ccccc3)NC(=O)Nc3nnc(S)s3)CC2)cc1	6
COc1ccc(CNC(=O)[C@H](Cc2ccccc2)NC(=O)Nc2nnc(S)s2)cc1OC	6.2
O=C(Nc1nnc(S)s1)N[C@@H](Cc1ccccc1)C(=O)N1CCSCC1	12
O=C(Nc1nnc(S)s1)N[C@@H](Cc1ccccc1)C(=O)O	> 200
O=C(Nc1nnc(S)s1)N[C@@H](Cc1ccccc1)C(=O)N1CCCC1	20
CNC(=O)[C@H](Cc1c(F)c(F)c(F)c(F)c1F)NC(=O)Nc1nnc(S)s1	3
O=C(Nc1nnc(S)s1)N[C@@H](Cc1ccccc1)C(=O)N1CCN(Cc2ccccc2)CC1	29
O=C(Nc1nnc(S)s1)N[C@@H](Cc1ccccc1)C(=O)N1CCN(c2ccccn2)CC1	1.5
CNC(=O)[C@H](Cc1ccc(O)cc1)NC(=O)Nc1nnc(S)s1	21
O=C(Nc1nnc(S)s1)N[C@@H](Cc1ccccc1)C(=O)NCC1CCCCC1	> 200
CNC(=O)[C@H](Cc1ccc(OC)cc1)NC(=O)Nc1nnc(S)s1	16
O=C(Nc1nnc(S)s1)N[C@@H](Cc1ccc(F)cc1)C(=O)N1CCN(c2ccccn2)CC1	1.8
O=C(Nc1nnc(S)s1)N[C@@H](Cc1c(F)c(F)c(F)c(F)c1F)C(=O)N1CCN(c2ccccn2)CC1	0.77
COC(=O)[C@H](Cc1ccccc1)NC(=O)Nc1nnc(S)s1	17
NC(=O)[C@H](Cc1ccccc1)NC(=O)Nc1nnc(S)s1	> 200
O=C(Nc1nnc(S)s1)N[C@@H](Cc1ccccc1)C(=O)N1CCN(c2ncccn2)CC1	16
O=C(Nc1nnc(S)s1)N[C@@H](Cc1ccccc1)C(=O)NCc1ccccc1	15
CNC(=O)[C@@H](Cc1ccccc1)NC(=O)Nc1n[nH]c(=S)s1	> 200
CNC(=O)[C@H](CC1CCCCC1)NC(=O)Nc1n[nH]c(=S)s1	67
CNC(=O)[C@@H](NC(=O)Nc1n[nH]c(=S)s1)c1ccccc1	41
CNC(=O)CNC(=O)Nc1n[nH]c(=S)s1	> 100
CN(C)C(=O)[C@H](Cc1ccccc1)NC(=O)Nc1nnc(S)s1	226
CNC(=O)[C@H](COCc1ccccc1)NC(=O)Nc1nnc(S)s1	52
CNC(=O)[C@H](Cc1ccc(F)cc1)NC(=O)Nc1nnc(S)s1	8.9
O=C(Nc1nnc(S)s1)N[C@@H](Cc1ccccc1)C(=O)N1CCOCC1	32
CNC(=O)[C@H](Cc1ccc([N+](=O)[O-])cc1)NC(=O)Nc1nnc(S)s1	15
